Source: paper PMC3269786 (Neuron, 2012)
Blank lines part the entries; values can stand above or below the molecule they belong to.

Legend:
GHSR1a + DRD2 = GHSR1a + DRD2 (Homo sapiens, UniProt P14416+Q92847); format: cell-based
humans = conditions: ref Korner et al., 2003; cited from earlier work
[1] = tested on: mice (ghsr+/+, ghsr−/−, ghrelin+/+, ghrelin−/−); experiment: Food intake experiments in mice; format: in vivo, mouse; conditions: for food intake compared to vehicle: 0.5 mg/kg i.p.
[2] = tested on: primary cultures of hypothalamic neurons; experiment: Fluo-4 Ca2+ mobilization in primary hypothalamic neurons; format: cell-based, mouse; conditions: quinpirole 10 µM; ghrelin 100 nM after washing
[3] = biological target: GHSR1a and DRD2 co-expressed in SH-SY5Y cells (SH-GHSR1a) (Homo sapiens, UniProt P14416+Q92847); format: cell-based; conditions: quinpirole 10 µM; pretreatment 5 min
SNAP-M213K-GHSR1a = SNAP-M213K-GHSR1a (UniProt Q92847); experiment: FRET or BRET
SNAP-F279L-GHSR1a = SNAP-F279L-GHSR1a (UniProt Q92847); experiment: FRET or BRET
[4] = biological target: SNAP-GHSR1a (growth hormone secretagogue receptor / ghrelin receptor with a SNAP-tag at the N-terminus) (UniProt Q92847); experiment: FRET or BRET
rats = conditions: 6 day central infusion, ref Petersen et al., 2009; cited from earlier work
SNAP-GHSR1a = SNAP-GHSR1a (Homo sapiens, UniProt Q92847); experiment: Tr-FRET red-ghrelin binding assay in HEK293 cells expressing SNAP-GHSR1a
Chain of SNAP-GHSR1a (Q92847 whole entry): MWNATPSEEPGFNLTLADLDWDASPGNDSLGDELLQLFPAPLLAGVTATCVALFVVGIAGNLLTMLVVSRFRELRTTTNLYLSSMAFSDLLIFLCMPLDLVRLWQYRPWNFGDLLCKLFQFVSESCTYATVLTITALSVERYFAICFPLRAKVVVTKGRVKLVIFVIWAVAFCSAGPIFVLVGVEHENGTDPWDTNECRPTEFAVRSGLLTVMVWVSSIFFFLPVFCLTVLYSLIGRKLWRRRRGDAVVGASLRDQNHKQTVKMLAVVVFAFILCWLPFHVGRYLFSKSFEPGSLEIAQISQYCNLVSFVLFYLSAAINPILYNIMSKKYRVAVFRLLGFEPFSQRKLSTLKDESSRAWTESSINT

Chain of HA-CLIP-DRD2 (P14416 whole entry): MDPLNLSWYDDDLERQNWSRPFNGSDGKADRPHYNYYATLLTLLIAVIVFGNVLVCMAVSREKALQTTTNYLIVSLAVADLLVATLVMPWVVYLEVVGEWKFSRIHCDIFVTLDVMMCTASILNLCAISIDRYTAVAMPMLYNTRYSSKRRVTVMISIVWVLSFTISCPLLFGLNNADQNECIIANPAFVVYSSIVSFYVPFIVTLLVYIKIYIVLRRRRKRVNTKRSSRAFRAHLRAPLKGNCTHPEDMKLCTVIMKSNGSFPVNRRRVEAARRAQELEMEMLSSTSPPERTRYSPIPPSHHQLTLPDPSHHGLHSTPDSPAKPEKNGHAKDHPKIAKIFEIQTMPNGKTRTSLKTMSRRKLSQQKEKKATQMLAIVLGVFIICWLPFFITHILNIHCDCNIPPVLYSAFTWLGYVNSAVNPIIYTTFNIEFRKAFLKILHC
Chain of GHSR1a + DRD2 (Q92847 whole entry): as the sequence (Q92847 whole entry) above
Chain of GHSR1a + DRD2 (P14416 whole entry): as the sequence (P14416 whole entry) above
Chain of SNAP-F279L-GHSR1a (Q92847 whole entry F279L): as the sequence (Q92847 whole entry) above, with F279L counted along it
Chain of SNAP-M213K-GHSR1a (Q92847 whole entry M213K): as the sequence (Q92847 whole entry) above, with M213K counted along it
Chain of GHSR1a and DRD2 co-expressed in SH-SY5Y cells (SH-GHSR1a) (Q92847 whole entry): as the sequence (Q92847 whole entry) above
Chain of GHSR1a and DRD2 co-expressed in SH-SY5Y cells (SH-GHSR1a) (P14416 whole entry): as the sequence (P14416 whole entry) above
Chain of SNAP-GHSR1a (growth hormone secretagogue receptor / ghrelin receptor with a SNAP-tag at the N-terminus) (Q92847 whole entry, the tested form may be a part): as the sequence (Q92847 whole entry) above

effect on dopamine-induced Ca2+ signaling (GHSR1a + DRD2): blocked
Molecule: NCCOB(c1ccccc1)c1ccccc1 [2-aminoethoxydiphenyl borate]

Molecule: CN1CCc2cc(Cl)c(O)cc2[C@@H](c2ccccc2)C1 [SCH23390]
effect on dopamine-induced Ca2+ signaling (GHSR1a + DRD2): ineffective

Molecule: Oc1cc2c(c(Cl)c1O)CCNCC2c1ccccc1 (stereo not drawn) [SKF81297]
effect of preincubation on ghrelin-induced Ca2+ response (GHSR1a + DRD2; 30 min preincubation, ghrelin 100 nM): fails to inhibit

agonist-induced increase of [Ca2+]i (GHSR1a + DRD2; cells co-expressing GHSR1a + DRD2): dose-dependent mobilization of Ca^2+
Molecule: C=CCN1C[C@H](C(=O)N(CCCN(C)C)C(=O)NCC)C[C@@H]2c3cccc4[nH]cc(c34)C[C@H]21 [cabergoline]
body weight in treated humans (humans): weight loss | food intake compared to vehicle ([1]; ghrelin+/+ and ghrelin−/− mice): significantly reduced food intake irrespective of genotype | food intake compared to vehicle ([1]; ghsr+/+ mice, within 2 h): markedly reduced | food intake compared to vehicle ([1]; ghsr−/− mice): unaffected | food intake ([1]; mice, cabergoline 0.5 mg/kg and 2 mg/kg): dose dependent suppression of food intake

Molecule: CCCCCCCC(=O)OC[C@H](NC(=O)[C@H](CO)NC(=O)CN)C(=O)N[C@@H](Cc1ccccc1)C(=O)N[C@@H](CC(C)C)C(=O)N[C@@H](CO)C(=O)N1CCC[C@H]1C(=O)N[C@@H](CCC(=O)O)C(=O)N[C@@H](Cc1c[nH]cn1)C(=O)N[C@@H](CCC(N)=O)C(=O)N[C@@H](CCCNC(=N)N)C(=O)N[C@H](C(=O)N[C@@H](CCC(N)=O)C(=O)N[C@@H](CCC(N)=O)C(=O)N[C@@H](CCCNC(=N)N)C(=O)N[C@@H](CCCCN)C(=O)N[C@@H](CCC(=O)O)C(=O)N[C@@H](CO)C(=O)N[C@@H](CCCCN)C(=O)N[C@@H](CCCCN)C(=O)N1CCC[C@H]1C(=O)N1CCC[C@H]1C(=O)N[C@@H](C)C(=O)N[C@@H](CCCCN)C(=O)N[C@@H](CC(C)C)C(=O)N[C@@H](CCC(N)=O)C(=O)N1CCC[C@H]1C(=O)N[C@@H](CCCNC(=N)N)C(=O)O)C(C)C [ghrelin]
Ca2+ response in primary hypothalamic neurons [2]: immediate Ca^2+ response

Molecule: CCN1CCC[C@H]1CNC(=O)c1c(O)c(Cl)cc(Cl)c1OC [raclopride]
effect on dopamine-induced Ca2+ signaling (GHSR1a + DRD2): dose-dependently inhibited | effect on quinpirole-induced Ca2+ signal [3]: Attenuation of the Ca^2+ signal

Molecule: CCN1CCCC1CNC(=O)c1cc(S(N)(=O)=O)ccc1OC (stereo not drawn) [sulpiride]
effect on dopamine-induced Ca2+ signaling (GHSR1a + DRD2): dose-dependently inhibited | effect on ghrelin-induced Ca2+ mobilization (GHSR1a + DRD2; GHSR1a+DRD2 cells, ghrelin 100 nM): partially inhibited

FRET50 (SNAP-M213K-GHSR1a): 0.79 | FRET50 (SNAP-F279L-GHSR1a): 0.49 | FRET50 [4]: 0.086
Molecule: HA-CLIP-DRD2 (from UniProt P14416 1-443) (receptor)

Molecule: JMV2959
effect on cabergoline-induced suppression of food intake ([1]; ghsr+/+ mice, JMV2959 0.2 mg/kg i.p. 30 min before cabergoline 0.5 mg/kg): prevented | effect on food intake in cabergoline treated mice ([1]; ghsr−/− mice, JMV2959 0.2 mg/kg i.p. 30 min before cabergoline 0.5 mg/kg): unaffected

Molecule: [D-Arg1,D-Phe5,D-Trp7,9,Leu11]-substance P
food intake and weight gain (rats): modest reductions in food intake and weight gain

inhibition of red ghrelin binding (SNAP-GHSR1a): ineffective
Molecule: des-acyl ghrelin
